In ChEMBL document CHEMBL1130619, “Quaternary substituted PDE4 inhibitors I: the synthesis and in vitro evaluation of a novel series of oxindoles” (Bioorg Med Chem Lett, 1998):

How the values were obtained:
Phosphodiesterase 4 [1] = target: T1, Phosphodiesterase 4 (Homo sapiens, UniProt P27815+Q08499+Q07343+Q08493); test: Inhibition of guinea pig macrophage Phosphodiesterase 4; assay type: protein assay, Cavia porcellus; settings: target entry is the homologue from another species
Phosphodiesterase 4 [2] = target: T1, Phosphodiesterase 4; test: Displacement of [3H]rolipram binding to guinea pig brain membrane; assay type: tissue-based, Cavia porcellus; settings: target entry is the homologue from another species

Row | Structure (SMILES) | IC50 (Phosphodiesterase 4 [1]) [µM] | Ki (Phosphodiesterase 4 [2]) [µM]
1 | COc1ccc(C2(Cc3ccncc3)C(=O)N(Cc3ccncc3)c3ccccc32)cc1OC1CCCC1 (centres undefined) | 1 | > 3.7
2 | COc1ccc(C2(Cc3ccncc3)C(=O)N(Cc3ccccc3)c3ccccc32)cc1OC1CCCC1 (centres undefined) | 2 | > 3.7
3 | COc1ccc(C2(Cc3ccccn3)C(=O)Nc3ccccc32)cc1OC1CCCC1 (centres undefined) | 0.7 | > 3.7
4 | COc1ccc(C2(Cc3ccncc3)C(=O)N(C(=O)N(C)C)c3ccccc32)cc1OC1CCCC1 (centres undefined) | 1.7 | 2.4
5 | COc1ccc(C2(Cc3ccccc3)C(=O)Nc3ccccc32)cc1OC1CCCC1 (centres undefined) | 1 | > 3.7
6 | COc1ccc(C2(Cc3ccncc3)C(=O)N(C(=O)OC(C)(C)C)c3ccccc32)cc1OC1CCCC1 (centres undefined) | 0.7 | 2.8
7 | COc1ccc([C@H](Cc2ccncc2)c2ccccc2)cc1OC1CCCC1 [CDP840] | 0.0045 | 0.06
8 | COc1ccc(C2(Cc3cc[n+]([O-])cc3)C(=O)Nc3ccccc32)cc1OC1CCCC1 (centres undefined) | 1.2 | > 3.7
9 | COc1ccc(C2(Cc3cccnc3)C(=O)Nc3ccccc32)cc1OC1CCCC1 (centres undefined) | 0.4 | 2.6
10 | COc1ccc(C2C(=O)Nc3ccccc32)cc1OC1CCCC1 (centres undefined) | 6 | > 3.7
11 | COc1ccc(C2(Cc3ccncc3)C(=O)Nc3ccccc32)cc1OC1CCCC1 (centres undefined) | 0.6 | 0.2
12 | COc1ccc(C2(Cc3ccncc3)C(=O)N(S(=O)(=O)c3ccc(C)cc3)c3ccccc32)cc1OC1CCCC1 (centres undefined) | 2.4 | > 3.7
